Drawing on patent publication US20260070945A1, “MACROCYCLIC IMMUNOMODULATORS” (Bristol-Myers Squibb Company, priority 2022, published 2026), this text covers IC50 for twelve molecules.

*1 amine or outer side, *2 acyl side, *3 side chain or, on linkers, in order; H or OH if unused. Where a SMILES comes first, the peptide text is derived from it. Bridges are numbered along the chain shown (N, C = ends). [ ]: non-standard residue; d: D form. The star is where a group is joined. ξ: configuration not given here. X15 = NCCCC[C@H](NC(=O)CNCCNCCN*)C(=O)NCCCCCCCCCCC(=O)O; Phe(3-CF3) = N[C@@H](Cc1cccc(C(F)(F)F)c1)C(=O)O; Ala(morpholin-4-yl) = N[C@@H](CN1CCOCC1)C(=O)O; Phe(4-COOH) = N[C@@H](Cc1ccc(C(=O)O)cc1)C(=O)O; Bip = N[C@@H](Cc1ccc(-c2ccccc2)cc1)C(=O)O; Phe(3-Me) = Cc1cccc(C[C@H](N)C(=O)O)c1; Phe(4-F) = N[C@@H](Cc1ccc(F)cc1)C(=O)O; NH(CH2)12COOH = O=C(O)CCCCCCCCCCCCN*; NMeAEEA = CN(CCOCCOCC(=O)[*:2])[*:1]; Cyclopropanecarbonyl = O=C(C1CC1)*; Val(3-OH) = CC(C)(O)[C@H](N)C(=O)O; hArg = N=C(N)NCCCC[C@H](N)C(=O)O; 4Pal = N[C@@H](Cc1ccncc1)C(=O)O; Cha = N[C@@H](CC1CCCCC1)C(=O)O; Cit = NC(=O)NCCC[C@H](N)C(=O)O; Ile(3ξ) = CCC(C)[C@H](N)C(=O)O; Thr(3ξ) = CC(O)[C@H](N)C(=O)O; 12Ado = NCCCCCCCCCCCC(=O)O; Carboxymethyl = O=C(O)C*; NMeA = CN[C@@H](C)C(=O)O; Orn = NCCC[C@H](N)C(=O)O; Aun = NCCCCCCCCCCC(=O)O; Dab = NCC[C@H](N)C(=O)O; Dap = NC[C@H](N)C(=O)O; AEEA = NCCOCCOCC(=O)O

As usually defined, the IC50 is the midpoint of a concentration-inhibition curve.

T1 sequence (Q15116 25-288): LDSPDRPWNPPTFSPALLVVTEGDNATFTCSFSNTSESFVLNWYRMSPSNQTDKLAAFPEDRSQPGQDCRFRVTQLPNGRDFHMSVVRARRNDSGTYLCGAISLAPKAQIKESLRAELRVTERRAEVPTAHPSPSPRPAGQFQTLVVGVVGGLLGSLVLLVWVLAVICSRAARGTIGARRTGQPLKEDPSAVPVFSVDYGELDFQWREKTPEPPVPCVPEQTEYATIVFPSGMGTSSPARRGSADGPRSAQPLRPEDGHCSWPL

The first assay concerns the target T1, PD-1/PD-L1 interaction (PE-labeled human PD-L1-Ig binding to Jurkat cell line over-expressing human PD-1) (Homo sapiens, UniProt Q15116).
T1 construct: expressed in transfected cells; host or cells: Jurkat
The assay is described as follows: Jurkat-PD-1 Cell Binding High-Content Screening Assay (CBA). The conditions noted are these: Jurkat-hPD-1 cells, PE-labeled PD-L1-Ig 20 nM final; read-out: Jurkat HPD1 PDL1 IC50. Put shortly:
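Compound is added first to the PD-1-expressing Jurkat cells and held 2 h at 37 °C in serum-containing DMEM. The fluorescent PD-L1 fusion follows at 20 nM final for 1 h. Fixed, Hoechst-stained cells are then imaged for bound label.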
As to `Cc1cccc(C[C@@H]2NC(=O)[C@H](CC(=O)O)NC(=O)[C@H](Cc3ccc(OCC(=O)O)cc3)NC(=O)[C@H](C(C)O)NC(=O)CSC[C@@H](C(=O)N(C)CCOCCOCC(=O)NCCCCCCCCCCC(=O)O)NC(=O)[C@H](CCC(N)=O)NC(=O)[C@H](C(C)C)NC(=O)[C@H](CC3CCCCC3)NC(=O)[C@H](CCN)NC(=O)[C@@H](CC(C)C)NC(=O)[C@H](C)N(C)C(=O)[C@H](C(C)C)NC(=O)[C@H](Cc3ccc(-c4ccccc4)cc3)NC(=O)[C@H](C(C)C)NC2=O)c1` (stereo partly drawn) [Example 2357] ({CH2CO}-[Thr(3ξ)]Y(Carboxymethyl)D[Phe(3-Me)]V[Bip]V[NMeA][dL][Dab][Cha]VQC[NMeAEEA][Aun]-OH; thioether N-14), the IC50 came to 66.7 nM.
Still for that read-out and setting: the figure for `CC(C)C[C@H]1NC(=O)[C@H](C)N(C)C(=O)[C@H](C(C)C)NC(=O)[C@H](Cc2ccc(-c3ccccc3)cc2)NC(=O)[C@H](C(C)C)NC(=O)[C@H](Cc2c[nH]c3ccccc23)NC(=O)[C@H](CC(=O)O)NC(=O)[C@H](Cc2ccncc2)NC(=O)[C@H](Cc2ccc(OCC(=O)O)cc2)NC(=O)CSC[C@@H](C(=O)N[C@@H](CCN)C(=O)NCCOCCOCC(=O)NCCCCCCCCCCCC(=O)O)NC(=O)[C@H](CO)NC(=O)[C@H](C(C)C)NC(=O)[C@H](CC2CCCCC2)NC(=O)[C@H](CCN)NC1=O` [Example 2117] ({CH2CO}-Y(Carboxymethyl)[4Pal]DWV[Bip]V[NMeA][dL][Dab][Cha]VSC[Dab][AEEA][12Ado]-OH; thioether N-14) is 30.3 nM; for `Cc1cccc(C[C@@H]2NC(=O)[C@H](CC(=O)O)NC(=O)[C@H](Cc3ccc(OCC(=O)O)cc3)NC(=O)[C@H](CCCCNC(=N)N)NC(=O)CSC[C@@H](C(=O)N[C@@H](CCN)C(=O)NCCCCCCCCCCC(=O)O)NC(=O)[C@H](C(C)O)NC(=O)[C@H](C(C)C)NC(=O)[C@H](CC3CCCCC3)NC(=O)[C@H](CCN)NC(=O)[C@@H](CC(C)C)NC(=O)[C@H](C)N(C)C(=O)[C@H](CCCNC(=O)C3CC3)NC(=O)[C@H](Cc3ccc(-c4ccccc4)cc3)NC(=O)[C@H](Cc3ccc(O)cc3)NC2=O)c1` (stereo partly drawn) [Example 2398] ({CH2CO}-[hArg]Y(Carboxymethyl)D[Phe(3-Me)]Y[Bip][Orn](Cyclopropanecarbonyl)[NMeA][dL][Dab][Cha]V[Thr(3ξ)]C[Dab][Aun]-OH; thioether N-14) it is 16.6 nM; for `CCC(C)[C@@H]1NC(=O)[C@H](Cc2ccc(-c3ccccc3)cc2)NC(=O)[C@H](CC(C)C)NC(=O)[C@H](Cc2c[nH]c3ccccc23)NC(=O)[C@H](CC(=O)O)NC(=O)[C@H](Cc2ccc(O)cc2)NC(=O)[C@H](CC(N)=O)NC(=O)CSC[C@@H](C(=O)N[C@@H](C)C(=O)NCCOCCOCC(=O)N[C@@H](CCCN)C(=O)NCCCCCCCCCCC(=O)O)NC(=O)[C@H](CO)NC(=O)[C@H](C(C)C)NC(=O)[C@H](CC2CCCCC2)NC(=O)[C@H](CC(N)=O)NC(=O)[C@@H](CC(C)C)NC(=O)[C@H](C)N(C)C1=O` (stereo partly drawn) [Example 2076] ({CH2CO}-NYDWL[Bip][Ile(3ξ)][NMeA][dL]N[Cha]VSCA[AEEA][Orn][Aun]-OH; thioether N-14) it is 54.3 nM.
Still for that read-out and setting: the figure for `Cc1cccc(C[C@@H]2NC(=O)[C@H](CC(=O)O)NC(=O)[C@H](Cc3ccc(C(=O)O)cc3)NC(=O)[C@H](Cc3ccc(OCC(=O)O)cc3)NC(=O)CSC[C@@H](C(=O)NCCOCCOCC(=O)NCCCCCCCCCCC(=O)O)NC(=O)[C@H](C(C)O)NC(=O)[C@H](C(C)C)NC(=O)[C@H](CC3CCCCC3)NC(=O)[C@H](CCN)NC(=O)[C@@H](CC(C)C)NC(=O)[C@H](C)N(C)C(=O)[C@H](C(C)C)NC(=O)[C@H](Cc3ccc(-c4ccccc4)cc3)NC(=O)[C@H](CC(C)C)NC2=O)c1` (stereo partly drawn) [Example 2325] ({CH2CO}-Y(Carboxymethyl)[Phe(4-COOH)]D[Phe(3-Me)]L[Bip]V[NMeA][dL][Dab][Cha]V[Thr(3ξ)]C[AEEA][Aun]-OH; thioether N-14) is 30 nM; for `Cc1cccc(C[C@@H]2NC(=O)[C@H](CC(=O)O)NC(=O)[C@H](Cc3ccc(OCC(=O)O)cc3)NC(=O)[C@H](CN)NC(=O)CSC[C@@H](C(=O)NCCNCCNCC(=O)N[C@@H](CCCCN)C(=O)NCCCCCCCCCCC(=O)O)NC(=O)[C@H](CO)NC(=O)[C@H](C(C)C)NC(=O)[C@H](CC(C)C)NC(=O)[C@H](CC(N)=O)NC(=O)[C@@H](CC(C)C)NC(=O)[C@H](C)N(C)C(=O)[C@H](C(C)C)NC(=O)[C@H](Cc3ccc(-c4ccccc4)cc3)NC(=O)[C@H](CC(C)C)NC2=O)c1` [Example 1065] ({CH2CO}-[Dap]Y(Carboxymethyl)D[Phe(3-Me)]L[Bip]V[NMeA][dL]NLVSC-X15; thioether N-14) it is 32.4 nM.
Turning to `CC(C)C[C@H]1NC(=O)[C@H](C)N(C)C(=O)[C@H](CCCNC(N)=O)NC(=O)[C@H](Cc2ccc(-c3ccccc3)cc2)NC(=O)[C@H](Cc2ccc(C(=O)O)cc2)NC(=O)[C@H](Cc2cccc(C(F)(F)F)c2)NC(=O)[C@H](CC(=O)O)NC(=O)[C@H](Cc2ccc(OCC(=O)O)cc2)NC(=O)[C@H](Cc2ccc(C(=O)O)cc2)NC(=O)CSC[C@@H](C(=O)N[C@@H](CCN)C(=O)NCCCCCCCCCCCCC(=O)O)NC(=O)[C@H](Cc2c[nH]cn2)NC(=O)[C@H](C(C)(C)O)NC(=O)[C@H](CC2CCCCC2)NC(=O)[C@H](CCN)NC1=O` [Example 1149] ({CH2CO}-[Phe(4-COOH)]Y(Carboxymethyl)D[Phe(3-CF3)][Phe(4-COOH)][Bip][Cit][NMeA][dL][Dab][Cha][Val(3-OH)]HC[Dab]-{NH(CH2)12COOH}; thioether N-14), the IC50 is 15.2 nM.
In the case of `CC(C)C[C@H]1NC(=O)[C@H](C)N(C)C(=O)[C@H](CCC(N)=O)NC(=O)[C@H](Cc2ccc(-c3ccccc3)cc2)NC(=O)[C@H](Cc2ccc(C(=O)O)cc2)NC(=O)[C@H](Cc2cccc(C(F)(F)F)c2)NC(=O)[C@H](CC(=O)O)NC(=O)[C@H](Cc2ccc(OCC(=O)O)cc2)NC(=O)[C@H](CN2CCOCC2)NC(=O)CSC[C@@H](C(=O)N[C@@H](CCN)C(=O)NCCCCCCCCCCCCC(=O)O)NC(=O)[C@H](Cc2c[nH]cn2)NC(=O)[C@H](C(C)(C)O)NC(=O)[C@H](CC2CCCCC2)NC(=O)[C@H](CCN)NC1=O` [Example 1188] ({CH2CO}-[Ala(morpholin-4-yl)]Y(Carboxymethyl)D[Phe(3-CF3)][Phe(4-COOH)][Bip]Q[NMeA][dL][Dab][Cha][Val(3-OH)]HC[Dab]-{NH(CH2)12COOH}; thioether N-14), the IC50 was found to be 20.5 nM.
The same measure, in the same setting: the same measure for `CC(C)C[C@H]1NC(=O)[C@H](C)N(C)C(=O)[C@H](C(C)C)NC(=O)[C@H](Cc2ccc(-c3ccccc3)cc2)NC(=O)[C@H](C(C)C)NC(=O)[C@H](Cc2c[nH]c3ccccc23)NC(=O)[C@H](CC(=O)O)NC(=O)[C@H](Cc2ccc(OCC(=O)O)cc2)NC(=O)[C@H](CN)NC(=O)CSC[C@@H](C(=O)NCC(=O)NCCOCCOCC(=O)N[C@@H](CCCCN)C(=O)NCCCCCCCCCCC(=O)O)NC(=O)[C@H](CO)NC(=O)[C@H](C(C)C)NC(=O)[C@H](CC2CCCCC2)NC(=O)[C@H](CCN)NC1=O` [Example 2085] ({CH2CO}-[Dap]Y(Carboxymethyl)DWV[Bip]V[NMeA][dL][Dab][Cha]VSCG[AEEA]K[Aun]-OH; thioether N-14): 9.8 nM; for `CCC(C)[C@@H]1NC(=O)[C@H](Cc2ccc(-c3ccccc3)cc2)NC(=O)[C@H](CC(C)C)NC(=O)[C@H](Cc2c[nH]c3ccccc23)NC(=O)[C@H](CC(=O)O)NC(=O)[C@H](Cc2ccc(O)cc2)NC(=O)[C@H](CC(N)=O)NC(=O)CSC[C@@H](C(=O)N[C@@H](C)C(=O)NCCOCCOCC(=O)NCCCCCCCCCCC(=O)O)NC(=O)[C@H](CO)NC(=O)[C@H](C(C)C)NC(=O)[C@H](CC2CCCCC2)NC(=O)[C@H](CCN)NC(=O)[C@@H](CC(C)C)NC(=O)[C@H](C)N(C)C1=O` (stereo partly drawn) [Example 2072] ({CH2CO}-NYDWL[Bip][Ile(3ξ)][NMeA][dL][Dab][Cha]VSCA[AEEA][Aun]-OH; thioether N-14): 25.4 nM.

Staying with this assay, now noted: PE-labeled PD-L1-Ig 20 nM final, Jurkat-hPD-1 cells; read-out: Jurkat HPD1 PDL1 IC50.
Consider `CCC(C)[C@@H]1NC(=O)[C@H](Cc2ccc(-c3ccccc3)cc2)NC(=O)[C@H](C(C)C)NC(=O)[C@H](Cc2c[nH]c3ccccc23)NC(=O)[C@H](CC(=O)O)NC(=O)[C@H](Cc2ccc(C(=O)O)cc2)NC(=O)[C@H](Cc2cnc[nH]2)NC(=O)CSC[C@@H](C(=O)N[C@@H](CCN)C(=O)N[C@@H](CCC(=O)NCCCCCCCCCCCCC(=O)O)C(=O)O)NC(=O)[C@H](CCC(=O)O)NC(=O)[C@H](C(C)(C)O)NC(=O)[C@H](CC2CCCCC2)NC(=O)[C@H](CCN)NC(=O)[C@@H](CC(C)C)NC(=O)[C@H](C)N(C)C1=O` (stereo partly drawn) [Example 2632] ({CH2CO}-H[Phe(4-COOH)]DWV[Bip][Ile(3ξ)][NMeA][dL][Dab][Cha][Val(3-OH)]EC[Dab]E(NH(CH2)12COOH)-OH; thioether N-14), for which the IC50 was 24.9 nM.
Same read-out and setting: the figure for `Cc1cccc(C[C@@H]2NC(=O)[C@H](CC(=O)O)NC(=O)[C@H](Cc3ccc(OCC(=O)O)cc3)NC(=O)[C@H](Cc3ccc(F)cc3)NC(=O)CSC[C@@H](C(=O)N[C@@H](CCN)C(=O)NCCOCCOCC(=O)NCCCCCCCCCCC(=O)O)NC(=O)[C@H](CCC(=O)O)NC(=O)[C@H](C(C)C)NC(=O)[C@H](CC3CCCCC3)NC(=O)[C@H](CCN)NC(=O)[C@@H](CC(C)C)NC(=O)[C@H](C)N(C)C(=O)[C@H](Cc3ccc(OCC(=O)O)cc3)NC(=O)[C@H](Cc3ccc(-c4ccccc4)cc3)NC(=O)[C@H](Cc3ccc(OCC(=O)O)cc3)NC2=O)c1` [Example 2560] ({CH2CO}-[Phe(4-F)]Y(Carboxymethyl)D[Phe(3-Me)]Y(Carboxymethyl)[Bip]Y(Carboxymethyl)[NMeA][dL][Dab][Cha]VEC[Dab][AEEA][Aun]-OH; thioether N-14) is 2.1 nM.
